35 compounds from ChEMBL document CHEMBL1132364, “Structure-activity relationship of N-(phenylalkyl)cinnamides as novel NR2B subtype-selective NMDA receptor antagonists” (J Med Chem, 1999) can be followed below.

The structures appear in SMILES notation. pIC50: −log10 of the molar value. Where only a bound is given, the exact number is not on record here.

Experiment [1] has as its target Glutamate NMDA receptor; Grin1/Grin2b (Rattus norvegicus, UniProt P35439+Q00960). Nature of the experiment: Antagonistic activity against N-methyl-D-aspartate glutamate receptor 1/2B. It is filed as functional.
Experiment [2] addresses Glutamate NMDA receptor; Grin1/Grin2a (Rattus norvegicus, UniProt P35439+Q00959). Nature of the experiment: Antagonistic activity against N-methyl-D-aspartate glutamate receptor 1/2A. It is filed as functional.
The target in experiment [3] is Glutamate NMDA receptor; Grin1/Grin2c (Rattus norvegicus, UniProt P35439+Q00961). Nature of the experiment: Antagonistic activity against N-methyl-D-aspartate glutamate receptor 1/2C. In kind it is functional.
Experiment [4] concerns the target T1, Alpha-1A adrenergic receptor (Homo sapiens, UniProt P35348).
T1 sequence (P35348 whole entry): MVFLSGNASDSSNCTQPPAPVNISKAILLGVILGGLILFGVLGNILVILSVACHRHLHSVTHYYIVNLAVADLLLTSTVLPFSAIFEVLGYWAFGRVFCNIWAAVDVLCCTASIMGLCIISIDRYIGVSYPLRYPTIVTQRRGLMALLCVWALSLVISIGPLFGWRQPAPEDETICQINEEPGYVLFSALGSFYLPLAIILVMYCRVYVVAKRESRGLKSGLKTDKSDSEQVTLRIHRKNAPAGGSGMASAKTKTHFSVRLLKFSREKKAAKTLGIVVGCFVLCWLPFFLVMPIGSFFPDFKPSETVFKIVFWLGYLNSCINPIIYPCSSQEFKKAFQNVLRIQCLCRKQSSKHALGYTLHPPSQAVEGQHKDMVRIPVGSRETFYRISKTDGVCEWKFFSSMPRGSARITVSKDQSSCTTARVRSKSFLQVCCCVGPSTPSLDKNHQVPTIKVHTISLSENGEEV
Nature of the experiment: Inhibition of Alpha-1 adrenergic receptor.

Experiment [5] addresses Epidermal growth factor receptor (Homo sapiens, UniProt P00533). Nature of the experiment: Inhibition of Epidermal growth factor receptor autophosphorylation.

Glutamate NMDA receptor; Grin1/Grin2c, sequence (Q00961 whole entry, other chains not shown): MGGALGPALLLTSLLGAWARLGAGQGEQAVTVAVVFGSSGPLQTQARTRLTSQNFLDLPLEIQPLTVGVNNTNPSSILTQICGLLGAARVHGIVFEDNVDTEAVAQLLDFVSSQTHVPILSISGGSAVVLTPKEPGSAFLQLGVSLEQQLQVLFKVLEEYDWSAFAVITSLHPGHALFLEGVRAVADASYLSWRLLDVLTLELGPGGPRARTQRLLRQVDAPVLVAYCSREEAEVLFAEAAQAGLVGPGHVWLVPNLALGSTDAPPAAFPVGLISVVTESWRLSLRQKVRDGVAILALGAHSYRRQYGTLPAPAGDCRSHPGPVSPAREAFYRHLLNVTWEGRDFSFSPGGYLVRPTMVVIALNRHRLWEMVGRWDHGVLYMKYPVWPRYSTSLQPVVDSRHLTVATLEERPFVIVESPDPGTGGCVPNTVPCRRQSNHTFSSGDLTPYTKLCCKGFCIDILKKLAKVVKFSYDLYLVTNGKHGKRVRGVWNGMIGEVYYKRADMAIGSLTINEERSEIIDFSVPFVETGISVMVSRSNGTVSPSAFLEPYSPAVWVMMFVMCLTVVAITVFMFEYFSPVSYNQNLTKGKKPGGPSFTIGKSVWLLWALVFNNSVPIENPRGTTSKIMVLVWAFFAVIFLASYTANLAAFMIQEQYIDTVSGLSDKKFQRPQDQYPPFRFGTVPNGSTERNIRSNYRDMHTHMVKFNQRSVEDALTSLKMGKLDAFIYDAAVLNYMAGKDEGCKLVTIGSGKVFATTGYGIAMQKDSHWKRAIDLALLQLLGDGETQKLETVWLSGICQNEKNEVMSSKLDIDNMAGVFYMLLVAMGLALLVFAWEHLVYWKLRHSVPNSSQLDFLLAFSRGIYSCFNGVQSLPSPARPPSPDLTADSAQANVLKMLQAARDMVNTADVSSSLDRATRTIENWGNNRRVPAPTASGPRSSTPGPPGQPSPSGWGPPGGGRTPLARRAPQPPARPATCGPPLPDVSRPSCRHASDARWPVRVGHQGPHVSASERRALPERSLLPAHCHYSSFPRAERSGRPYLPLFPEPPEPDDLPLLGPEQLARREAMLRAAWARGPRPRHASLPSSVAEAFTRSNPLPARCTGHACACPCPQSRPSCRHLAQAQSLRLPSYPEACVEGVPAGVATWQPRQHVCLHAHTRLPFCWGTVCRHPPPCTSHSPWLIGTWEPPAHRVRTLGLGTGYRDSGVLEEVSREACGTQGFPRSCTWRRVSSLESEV
Glutamate NMDA receptor; Grin1/Grin2b, sequence (Q00960 whole entry, other chains not shown): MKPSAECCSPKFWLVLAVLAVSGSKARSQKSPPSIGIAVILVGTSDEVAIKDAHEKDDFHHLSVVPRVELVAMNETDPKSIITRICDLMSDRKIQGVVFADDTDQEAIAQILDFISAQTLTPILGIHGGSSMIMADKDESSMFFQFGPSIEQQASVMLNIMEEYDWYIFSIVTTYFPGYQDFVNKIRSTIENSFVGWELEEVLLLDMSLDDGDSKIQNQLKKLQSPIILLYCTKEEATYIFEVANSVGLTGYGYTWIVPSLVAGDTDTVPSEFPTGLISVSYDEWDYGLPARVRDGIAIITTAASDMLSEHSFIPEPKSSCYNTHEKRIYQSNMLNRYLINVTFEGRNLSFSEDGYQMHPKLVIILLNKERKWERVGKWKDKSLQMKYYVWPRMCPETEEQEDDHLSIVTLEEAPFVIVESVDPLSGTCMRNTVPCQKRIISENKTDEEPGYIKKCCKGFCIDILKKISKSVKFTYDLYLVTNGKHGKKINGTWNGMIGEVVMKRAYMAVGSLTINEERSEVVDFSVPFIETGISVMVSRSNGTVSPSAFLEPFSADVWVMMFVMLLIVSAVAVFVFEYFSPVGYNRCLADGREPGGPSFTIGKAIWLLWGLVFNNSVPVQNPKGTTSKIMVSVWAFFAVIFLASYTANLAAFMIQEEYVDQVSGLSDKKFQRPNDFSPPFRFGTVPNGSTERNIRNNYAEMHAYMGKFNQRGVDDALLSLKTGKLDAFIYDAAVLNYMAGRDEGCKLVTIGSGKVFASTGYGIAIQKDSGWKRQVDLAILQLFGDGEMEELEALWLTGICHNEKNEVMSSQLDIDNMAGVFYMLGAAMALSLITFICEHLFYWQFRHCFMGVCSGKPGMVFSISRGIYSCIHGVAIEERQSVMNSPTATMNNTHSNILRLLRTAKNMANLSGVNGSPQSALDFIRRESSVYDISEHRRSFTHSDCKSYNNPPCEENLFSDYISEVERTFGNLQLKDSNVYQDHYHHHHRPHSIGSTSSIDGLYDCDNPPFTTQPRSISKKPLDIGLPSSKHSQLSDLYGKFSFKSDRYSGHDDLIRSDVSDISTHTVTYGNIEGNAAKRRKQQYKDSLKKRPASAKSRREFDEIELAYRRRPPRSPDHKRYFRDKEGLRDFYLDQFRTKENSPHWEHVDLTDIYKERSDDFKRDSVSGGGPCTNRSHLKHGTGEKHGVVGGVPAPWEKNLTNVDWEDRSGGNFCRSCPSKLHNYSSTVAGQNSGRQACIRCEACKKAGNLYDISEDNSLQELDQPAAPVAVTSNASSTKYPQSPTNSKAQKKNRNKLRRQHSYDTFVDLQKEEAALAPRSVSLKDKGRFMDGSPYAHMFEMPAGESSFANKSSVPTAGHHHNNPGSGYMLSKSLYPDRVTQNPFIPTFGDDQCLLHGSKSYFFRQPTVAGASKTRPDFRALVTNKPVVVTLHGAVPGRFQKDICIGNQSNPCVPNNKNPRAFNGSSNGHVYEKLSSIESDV
Glutamate NMDA receptor; Grin1/Grin2a, sequence (Q00959 whole entry, other chains not shown): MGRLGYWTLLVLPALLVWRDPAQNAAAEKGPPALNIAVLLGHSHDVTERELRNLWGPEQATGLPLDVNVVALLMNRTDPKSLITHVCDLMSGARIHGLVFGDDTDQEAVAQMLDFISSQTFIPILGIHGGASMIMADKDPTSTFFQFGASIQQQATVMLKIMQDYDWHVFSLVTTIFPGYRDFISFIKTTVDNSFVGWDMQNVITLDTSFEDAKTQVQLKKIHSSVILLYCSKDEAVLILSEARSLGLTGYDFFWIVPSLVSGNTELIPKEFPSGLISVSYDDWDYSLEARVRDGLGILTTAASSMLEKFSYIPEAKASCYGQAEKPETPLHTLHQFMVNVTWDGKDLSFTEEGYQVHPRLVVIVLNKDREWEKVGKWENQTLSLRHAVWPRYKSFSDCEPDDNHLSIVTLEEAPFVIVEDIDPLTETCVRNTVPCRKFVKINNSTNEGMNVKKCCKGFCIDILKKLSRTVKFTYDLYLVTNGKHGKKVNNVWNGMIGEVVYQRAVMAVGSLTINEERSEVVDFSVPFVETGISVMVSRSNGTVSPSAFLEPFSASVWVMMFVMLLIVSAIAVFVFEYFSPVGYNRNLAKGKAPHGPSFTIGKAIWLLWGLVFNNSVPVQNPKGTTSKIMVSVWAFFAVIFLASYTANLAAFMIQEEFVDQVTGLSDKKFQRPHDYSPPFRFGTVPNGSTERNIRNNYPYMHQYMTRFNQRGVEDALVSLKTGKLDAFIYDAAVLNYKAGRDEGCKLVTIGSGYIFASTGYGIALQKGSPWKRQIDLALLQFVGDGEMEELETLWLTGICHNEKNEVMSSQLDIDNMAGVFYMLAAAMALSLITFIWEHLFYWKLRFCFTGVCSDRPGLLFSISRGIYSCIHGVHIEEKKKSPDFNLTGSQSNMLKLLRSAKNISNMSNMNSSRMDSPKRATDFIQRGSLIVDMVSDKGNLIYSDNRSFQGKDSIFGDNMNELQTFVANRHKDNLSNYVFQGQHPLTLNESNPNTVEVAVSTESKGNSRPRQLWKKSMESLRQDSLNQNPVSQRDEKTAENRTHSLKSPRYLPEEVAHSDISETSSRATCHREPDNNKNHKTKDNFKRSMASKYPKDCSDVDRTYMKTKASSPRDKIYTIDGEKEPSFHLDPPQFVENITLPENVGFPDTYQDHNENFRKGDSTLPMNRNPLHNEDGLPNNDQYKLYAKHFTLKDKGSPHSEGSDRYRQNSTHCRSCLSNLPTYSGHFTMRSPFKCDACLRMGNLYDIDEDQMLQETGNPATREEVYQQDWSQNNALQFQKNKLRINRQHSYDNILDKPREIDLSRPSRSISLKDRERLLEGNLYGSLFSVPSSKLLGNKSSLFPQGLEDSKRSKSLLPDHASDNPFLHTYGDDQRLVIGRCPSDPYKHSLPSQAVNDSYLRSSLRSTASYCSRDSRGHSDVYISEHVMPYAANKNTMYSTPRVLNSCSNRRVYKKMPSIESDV

As a reminder, the pIC50 is the IC50 on a negative log10 scale, so that one unit is a factor of ten. For the compound `O=C(/C=C/c1ccc(Cl)cc1)NCCc1ccc(O)cc1`, the values for the pIC50 in experiment [1], in experiment [2] and in experiment [3] were 6.77, < 4.00 and < 4.00, respectively.

On to `O=C(/C=C/c1ccc(Cl)cc1)NCCc1cccc(O)c1`, for which the pIC50 in experiment [1] was 5.13; in experiment [2] it was < 4.00; in experiment [3], < 4.00.

For `N#C/C(=C\c1ccc(Cl)cc1)C(=O)NCCc1ccc(O)cc1`, the pIC50 in experiment [1] was 5.47; in experiment [2], 4.11; in experiment [3] it was < 4.00.

Turning to `N#C/C(=C\c1ccc(O)c(O)c1)C(=O)NCCCCc1ccccc1`, the pIC50 in experiment [4] is < 4.00; in experiment [1] it was 6.25; in experiment [2], < 4.00; in experiment [3] it was < 4.00.

As for `N#C/C(=C\c1ccccc1)C(=O)NCCCCc1ccccc1`, the pIC50 is 4.10 in experiment [1], < 4.00 in experiment [2] and < 4.00 in experiment [3].

Consider `O=C(/C=C/c1ccc(O)cc1)NCCCCc1ccccc1`, for which the negative-log IC50 (pIC50) in experiment [4] is < 4.00; in experiment [1], 7.11; in experiment [2], < 4.00; in experiment [3] it was < 4.00.

Consider `O=C(/C=C/c1ccc(O)cc1)NCCc1ccc(O)cc1` [N-P-COUMAROYL TYRAMINE], for which the negative-log IC50 (pIC50) in experiment [1] is 4.68; in experiment [2] it was < 4.00; in experiment [3], < 4.00.

For `O=C(/C=C/c1ccc(O)cc1)NCCc1ccc(Cl)cc1`, the values for the pIC50 in experiment [1], in experiment [2] and in experiment [3] were 6.48, < 4.00 and < 4.00, respectively.

As to `N#C/C(=C\c1ccc(O)c(O)c1)C(=O)NCCCc1ccccc1`, the negative logarithm of the IC50 (pIC50) in experiment [1] is 6.18; in experiment [2], < 4.00; in experiment [3], 4.22.

For the compound `N#C/C(=C\C(=O)NCCc1ccc(O)cc1)c1ccccc1`, the pIC50 in experiment [1] was 4.34; in experiment [2] it was < 4.00; in experiment [3], < 4.00.

With `O=C(/C=C/c1ccc(Cl)cc1)NCCc1ccccc1`, the negative logarithm of the IC50 (pIC50) in experiment [1], in experiment [2] and in experiment [3] was < 4.00 each time.

Regarding `N#C/C(=C\C(=O)NCCc1ccc(O)cc1)c1ccc(Cl)cc1`, the pIC50 is 5.05 in experiment [1], < 4.00 in experiment [2] and < 4.00 in experiment [3].

For `O=C(/C=C/c1cc(Cl)ccc1Cl)NCCCCc1ccccc1`, the pIC50 in experiment [1], in experiment [2] and in experiment [3] was < 4.00 in each case.

Turning to `N#C/C(=C\c1ccc(F)cc1)C(=O)NCCCCc1ccccc1`, the pIC50 in experiment [1], in experiment [2] and in experiment [3] was < 4.00 each time.

Take `O=C(/C=C/c1ccc(Cl)cc1Cl)NCCc1ccc(O)cc1`: the pIC50 was < 4.00 in experiment [4], 4.72 in experiment [1], < 4.00 in experiment [2] and < 4.00 in experiment [3].

For `O=C(CCc1ccc(O)cc1)NCCCCc1ccccc1`, the values for the pIC50 in experiment [1], in experiment [2] and in experiment [3] were 6.37, < 4.00 and < 4.00, respectively.

Turning to `O=C(O)COc1ccc(CCNC(=O)/C=C/c2ccc(Cl)cc2)cc1`, the pIC50 in experiment [1] was 4.28; in experiment [2], 4.35; in experiment [3], < 4.00.

Regarding `N#C/C(=C\c1ccc(O)c(O)c1)C(=O)NCc1ccccc1`, the pIC50 is 4.35 in experiment [1], 4.72 in experiment [2] and 4.00 in experiment [3].

For `N#C/C(=C\c1cccc(O)c1)C(=O)NCCCCc1ccccc1`, the negative-log IC50 (pIC50) in experiment [1], in experiment [2] and in experiment [3] was < 4.00 throughout.

Take `O=C(/C=C/c1ccccc1)NCCc1ccc(O)cc1`: the negative logarithm of the IC50 (pIC50) in experiment [1] was 6.17; in experiment [2], < 4.00; in experiment [3], < 4.00.

Regarding `C[C@@H](CN1CCC(Cc2ccccc2)CC1)[C@@H](O)c1ccc(O)cc1`, the results for the pIC50 in experiment [1] and in experiment [2] were 8.05 and 4.28, respectively.

`O=C(CCCCCc1ccccc1)CCc1ccc(O)cc1`: the results for the negative-log IC50 (pIC50) in experiment [1], in experiment [2] and in experiment [3] were 5.74, 4.64 and < 4.00, respectively.

Regarding `N#C/C(=C\c1ccc(O)cc1)C(=O)NCCCCc1ccccc1`, the figures for the pIC50 in experiment [1], in experiment [2] and in experiment [3] were 6.54, < 4.00 and < 4.00, respectively.

Regarding `N#C/C(=C\c1ccc(Cl)cc1)C(=O)NCCCCc1ccccc1`, the pIC50 in experiment [1], in experiment [2] and in experiment [3] was < 4.00 each time.

For the compound `C[C@H]([C@@H](O)c1ccc(O)cc1)N1CCC(Cc2ccccc2)CC1` [(S,R)-IFENPRODIL], in experiment [4], the pIC50 was 7.00.

As to `N#C/C(=C\c1ccc(O)c(O)c1)C(=O)Nc1ccccc1`, the pIC50 was 4.05 in experiment [1], < 4.00 in experiment [2] and < 4.00 in experiment [3].

Regarding `N#C/C(=C\c1ccc(O)c(O)c1)C(=O)NCCc1ccccc1`, the pIC50 in experiment [1] was 5.77; in experiment [5], > 6.20; in experiment [2], < 4.00; in experiment [3], < 4.00.

Consider `O=C(/C=C/c1ccc(Cl)cc1)NCCc1ccccc1O`, for which the pIC50 was 5.08 in experiment [1], < 4.00 in experiment [2] and < 4.00 in experiment [3].

As to `O=C(/C=C/c1ccccc1)NCCCCc1ccccc1`, the pIC50 in experiment [1] was 4.62; in experiment [2], < 4.00; in experiment [3], < 4.00.

As for `CCN(CC)CCOc1ccc(CCNC(=O)/C=C/c2ccc(Cl)cc2)cc1`, the figures for the pIC50 in experiment [1], in experiment [2] and in experiment [3] were 4.49, 4.31 and < 4.00, respectively.

Consider `O=C(/C=C/c1ccc(O)cc1)NCCc1ccccc1`, for which the pIC50 in experiment [1] was 5.82; in experiment [2] it was < 4.00; in experiment [3], < 4.00.

On to `O=C(/C=C/c1ccc(Cl)cc1)NCCc1ccc(Cl)cc1`, for which the pIC50 in experiment [1], in experiment [2] and in experiment [3] was < 4.00 throughout.

Take `C[C@@H]([C@@H](O)c1ccc(O)cc1)N1CCC(O)(c2ccccc2)CC1` [TRAXOPRODIL]: the pIC50 in experiment [2] and in experiment [3] was < 4.00 throughout.

Take `O=C(/C=C/c1ccc(O)cc1)NCCCCc1ccc(Cl)cc1`: the pIC50 in experiment [1] is 6.90; in experiment [2] it was < 4.00; in experiment [3], < 4.00.

For the compound `O=C(/C=C/c1ccc(O)cc1)N1CCC(Cc2ccccc2)CC1`, the negative logarithm of the IC50 (pIC50) in experiment [4], in experiment [2] and in experiment [3] was < 4.00 in each case.
